These are literature values, as cited in patent US20030073115A1 (priority 2002, published 2003).

The test system of data set [1] is Galanin receptors in the dorsal hippocampus.
Data set [2] relates to CNS galanin receptors. To be noted: CNS / brain.
Data set [3] has as its system gastrointestinal smooth muscle.

Gal (1-15): galanin fragment 1-15: the affinity entry in data set [1] is on record as “high affinity”.

As for `CSCC[C@H](NC(=O)[C@H](CC(C)C)NC(=O)CNC(=O)[C@H](Cc1ccccc1)NC(=O)[C@H](Cc1ccccc1)NC(=O)[C@H](CCC(N)=O)NC(=O)[C@H](CCC(N)=O)NC(=O)[C@@H]1CCCN1C(=O)CNC(=O)[C@H](CC(C)C)NC(=O)[C@H](CC(C)C)NC(=O)[C@H](Cc1ccc(O)cc1)NC(=O)CNC(=O)[C@H](C)NC(=O)[C@H](CO)NC(=O)[C@H](CC(N)=O)NC(=O)[C@H](CC(C)C)NC(=O)[C@@H](NC(=O)[C@H](Cc1c[nH]c2ccccc12)NC(=O)CN)[C@@H](C)O)C(N)=O` [M15], the “activity at CNS galanin receptors” value in data set [2] is on record as “antagonist”. In addition, the “activity in gastrointestinal smooth muscle” value in data set [3] is recorded as “full agonist”.
